In patent publication US8338599B2, “Compounds having a potentiating effect on the activity of ethionamide and uses thereof” (priority 2006, dated 2012):
In brackets after ≈: the same amount, converted by molar mass.

Assays:
[1] = biological target: T1, EthR protein (Mycobacterium tuberculosis, UniProt P9WMC1); assay: In vitro measurement of the IC50 (EthR/DNA binding, BIAcore); design: species or system M. tuberculosis H37Rv
Procedure: b) In Vitro Measurement of the IC50 of the Compounds of the Invention.
The in vitro measurement of this datum was performed according to the same principle as for the measurement of inhibition of the EthR/DNA binding using the BIAcore technique.
The specific interaction between EthR and the specific 106-bp DNA fragment was measured on a range of six concentrations of the compounds of the invention, this range extending from 0.11 μM to 27 μM. The IC50 values are then extrapolated from the sigmoid curves obtained.

[2] = tested on: M. bovis BCG; type: cell-based, M. bovis BCG 1173P2; conditions: from MIC of ETH alone (6 μM) and MIC of ETH with 25 μM compound
[3] = Measurement of the solubility (PBS pH 7.4 vs methanol, LC/MS); type: physicochemical; conditions: pH 7.4, aqueous buffer, kinetic from dmso stock
Procedure: e) Measurement of the Solubility of the Compounds of the Invention
40 μl of a solution containing a compound of the invention at a concentration of 10 mM in DMSO were diluted in 1.960 ml of methanol, and another 40 μl were diluted in 1.960 ml of a PBS solution containing 675 mM of NaCl, 13.5 mM of KCl, 50 mM of Na2HPO4.2H2O and 10 mM of KH2PO4 at a pH of 7.4. The two solutions were stirred for 24 hours at room temperature, and then centrifuged for 5 minutes and filtered through 0.45 μm filters. 20 μl of each solution were then diluted in 118 μl of methanol and analyzed by liquid chromatography coupled to mass spectrometry (LC/MS). The solubility was determined by the ratio of the areas under the curve of the mass signal for the compound of the invention, according to the following equation: […]

[4] = tested on: M. tuberculosis H37Rv; assay: Ethionamide-potentiating effect, fluorimetric detection on Bactec MGIT 960; type: cell-based; conditions: compound 25 μM
[5] = biological target: T1, EthR protein; assay: Inhibition of interaction of EthR with its target DNA sequence (BIAcore); type: binding, M. tuberculosis H37Rv; conditions: compound 3 μM, EthR 540 nM, 37° C.
Procedure: a) Measurement of the Activity of the Compounds on the Inhibition of Interaction of EthR with its Target DNA Sequence
The in vitro measurements of inhibition of binding of the EthR protein to its target DNA sequence were performed on a machine of BIAcore®2000 type (AB, Uppsala, Sweden).
The chips used are CM5 chips sold by the company GE Healthcare. Both the channels of a chip were activated with a solution containing 200 mM of EDC(N-ethyl-N′-(3-[…])carbodiimide) and 50 mM of NHS (N-hydroxysuccinimide). Next, streptavidin (500 ng/μl in a solution containing 10 mM of sodium acetate (pH 3.5) was injected over 12 minutes at a flow rate of 10 μl/minute. The 106-base-pair biotinylated DNA fragment corresponding to the ethA-R intergene region was deposited on one of the two channels of the chip at a rate of 200 ng/ml in order to obtain stable binding of streptavidin corresponding to 50 RU (resonance units). This DNA fragment was obtained by PCR using the chromosomal DNA of M. tuberculosis H37Rv as matrix and O-270: 5′-[…]-3′ (SEQ ID: No. 1) and O-271: 5′-biotin-[…]-3′ (SEQ ID: No. 2). The second channel was functionalized with a 113-base-pair biotinylated DNA fragment (fragment +14 to +127 of the bla gene of E. coli PCR-amplified using the following oligonucleotides: O-343: 5′-[…]-3′ (SEQ ID: No. 3) and O-344: 5′-biotin-[…]-3′ (SEQ ID: No. 4).
Measurement of the binding of the EthR protein to the immobilized DNA was performed at 37° C. in a reference buffer containing 10 mM of Tris-HCl (pH=7.5), 200 mM of NaCl, 0.1 mM of EDTA, 1 mM of DTT and 1% of DMSO at a flow rate of 20 μl/minute. The specific interaction (SI) of EthR with the 106-base-pair double-stranded DNA sequence, expressed in resonance units, corresponds to the difference in signal observed between the two channels.
For each inhibition measurement, the compounds of the invention are dissolved in the reference buffer at a concentration of 3 μM. The compounds of the invention are then incubated in the presence of the protein (540 nM) at 37° C. for 5 minutes, and each solution is then injected onto the two channels of the chip for 3 minutes at a flow rate of 20 μl/minute. The inhibition values are calculated at the end of the injection according to the following equation: […]
in which SIEthR corresponds to the value measured without ligand and SIEthR+ligand corresponds to the value measured in the presence of to ligand.

T1 sequence (P9WMC1 whole entry, looked up): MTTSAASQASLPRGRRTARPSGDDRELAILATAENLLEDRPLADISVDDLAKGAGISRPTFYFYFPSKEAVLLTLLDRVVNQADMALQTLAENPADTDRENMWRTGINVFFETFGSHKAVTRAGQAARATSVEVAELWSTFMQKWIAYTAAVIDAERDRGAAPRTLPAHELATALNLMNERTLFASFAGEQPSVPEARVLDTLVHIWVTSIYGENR

SMILES | IC50 [1] | Potentiation % [2] | solubility at 24 h [3] | potentiation of the ethionamide activity (factor) [4] | inhibition at 3 µM [5] | potentiation of the ethionamide activity (factor) ([4]; listed as compound 22)
C=CCCC(=O)N1CCC(c2nc(-c3cccs3)no2)CC1 [Compound 20, 1-[4-(3-thiophen-2-yl[1,2,4]oxadiazol-5-yl)piperid-1-yl]pent-4-en-1-one] | 1000 nM | 2500% | 63.5 µg/mL (≈ 200 µM) | about 20 fold | 53% | –
N#CCC(=O)N1CCC(c2nc(-c3cccs3)no2)CC1 [Compound 22, 3-oxo-3-[4-(3-thiophen-2-yl[1,2,4]oxadiazol-5-yl)piperid-1-yl]propionitrile] | 3330 nM | 2500% | 60.4 µg/mL (≈ 200 µM) | ~10 fold | 28% | about 10 fold
